Assays:
Format in all cases: in vivo
Cocklebur [1] = test: Pre-emergent herbicidal activity; settings: Table III; 11.2 kg/h; 2 WAT
Description: (§1) A good grade of top soil is placed in aluminum pans and compacted to a depth of 0.95 to 1.27 cm. from the top of each pan. A predetermined number of seeds or vegetative propagules of each of several plant species are placed on top of the soil in each pan and then pressed down. Herbicidal compositions prepared as in the previous example are applied by admixture with or incorporation in the top layer of soil.
(§2) In this method, the soil required to cover the seeds and propagules is weighed and admixed with a herbicidal composition containing a known amount of the active ingredient (compound of this invention). The pans are then filled with the admixture and leveled. Watering is carried out by permitting the soil in the pans to absorb moisture through apertures in the pan bottoms. The seed and propagule containing pans are placed on a wet sand bench and maintained for approximately two weeks under ordinary conditions of sunlight and watering. At the end of this period, the number of emerged plants of each species is noted and compared to an untreated control.
(§3) The pre-emergent herbicidal activity index used below is based upon average percent control of each species as follows:
(§4) Plant species in the table are identified by the same code letters used in the previous example.

Quackgrass [2] = test: Pre-emergent herbicidal activity; settings: Table III; 11.2 kg/h; 2 WAT
Description: as §1, §2, §3, §4

Johnsongrass [3] = test: Pre-emergent herbicidal activity; settings: Table III; 11.2 kg/h; 2 WAT
Description: as §1, §2, §3, §4

Yellow Nutsedge [4] = test: Pre-emergent herbicidal activity; settings: Table III; 11.2 kg/h; 2 WAT
Description: as §1, §2, §3, §4

Lambsquarters = test: Pre-emergent herbicidal activity; settings: Table III; 11.2 kg/h; 2 WAT
Description: as §1, §2, §3, §4

Downy Brome = test: Pre-emergent herbicidal activity; settings: Table III; 11.2 kg/h; 2 WAT
Description: as §1, §2, §3, §4

Morningglory = test: Pre-emergent herbicidal activity; settings: Table III; 11.2 kg/h; 2 WAT
Description: as §1, §2, §3, §4

Smartweed = test: Pre-emergent herbicidal activity; settings: Table III; 11.2 kg/h; 2 WAT
Description: as §1, §2, §3, §4

Barnyardgrass = test: Pre-emergent herbicidal activity; settings: Table III; 11.2 kg/h; 2 WAT
Description: as §1, §2, §3, §4

Velvetleaf = test: Pre-emergent herbicidal activity; settings: Table III; 11.2 kg/h; 2 WAT
Description: as §1, §2, §3, §4

Canada Thistle = test: Pre-emergent herbicidal activity; settings: Table III; 11.2 kg/h; 2 WAT
Description: as §1, §2, §3, §4

Wheat = test: Post-emergence herbicidal activity, greenhouse; settings: Table II, 4 WAT
Description: (§5) A good grade of top soil is placed in aluminum pans having holes in the bottom and compacted to a depth of 0.95 to 1.27 cm. from the top of the pan. A predetermined number of seeds of each of several dicotyledonous and monocotyledonous annual plant species and/or vegetative propagules for the perennial plant species are placed on the soil and pressed into the soil surface. The seeds and/or vegetative propagules are covered with soil and leveled. The pans are then placed on a sand bench in the greenhouse and watered from below as needed. After the plants reach the desired age (two to three weeks), each pan except for the control pans is removed individually to a spraying chamber and sprayed by means of an atomizer operating at a positive air pressure of approximately 1.46 kg/cm^2 absolute. The atomizer contains 6 ml. of a solution or suspension of the chemical. In that 6 ml., is an amount of a cyclohexanone emulsifying agent mixture to give a spray solution or suspension which contains about 0.4% by weight of the emulsifier. The spray solution or suspension contains a sufficient amount of the candidate chemical in order to give application rates corresponding to those set forth in the tables. The spray solution is prepared by taking an aliquot of a 1.0% by weight stock solution or suspension of the candidate chemical in an organic solvent such as acetone or tetrahydrofuran or in water. The emulsifying agent employed is a mixture comprising 35 weight percent butylamine dodecylbenzene sulfonate and 65 weight percent of a tall oil ethylene oxide condensate having about 11 moles of ethylene oxide per mole of tall oil. The pans are returned to the greenhouse and watered as before and the injury to the plants as compared to the control is observed at approximately two and four weeks as indicated in the tables under WAT and the results recorded. In some instances, the two-week observations are omitted.
(§6) The post-emergence herbicidal activity index used in Table I is as follows:
(§7) The plant species utilized in these tests are identified by letter in accordance with the following legend: […]

Sugar Beet = test: Post-emergence herbicidal activity, greenhouse; settings: Table II, 4 WAT
Description: as §5, §6, §7

Cocklebur [5] = test: Post-emergence herbicidal activity, greenhouse; settings: 4 WAT
Description: as §5, §6, §7

Panicum Spp = test: Post-emergence herbicidal activity, greenhouse; settings: Table II, 4 WAT
Description: as §5, §6, §7

Quackgrass [6] = test: Post-emergence herbicidal activity, greenhouse; settings: Table I, 4 WAT
Description: as §5, §6, §7

Hemp Sesbania = test: Post-emergence herbicidal activity, greenhouse; settings: Table II, 4 WAT
Description: as §5, §6, §7

Johnsongrass [7] = test: Post-emergence herbicidal activity, greenhouse; settings: Table I, 4 WAT
Description: as §5, §6, §7

Wild Buckwheat = test: Post-emergence herbicidal activity, greenhouse; settings: Table II, 4 WAT
Description: as §5, §6, §7

Crabgrass = test: Post-emergence herbicidal activity, greenhouse; settings: Table II, 4 WAT
Description: as §5, §6, §7

Yellow Nutsedge [8] = test: Post-emergence herbicidal activity, greenhouse; settings: Table I, 4 WAT
Description: as §5, §6, §7

CCCCCCCCSSN(CC(=O)OC)CP(=O)(Oc1ccccc1)Oc1ccccc1 [II, Glycine, N-[(diphenoxyphosphinyl)methyl]-N-(octyldithio)-, methyl ester]
4 (100% control): post-emergence herbicidal activity index (Cocklebur [5]; Table I, 5.6 kg/h) | post-emergence herbicidal activity index (Crabgrass; 5.6 kg/h)
0 (0- 24% control): post-emergence herbicidal activity index (Wheat; 0.28 kg/h) | post-emergence herbicidal activity index (Wheat; 1.12 kg/h) | post-emergence herbicidal activity index (Sugar Beet; 0.28 kg/h) | post-emergence herbicidal activity index (Sugar Beet; 1.12 kg/h) | post-emergence herbicidal activity index (Cocklebur [5]; Table II, 0.28 kg/h) | post-emergence herbicidal activity index (Panicum Spp; 0.28 kg/h) | post-emergence herbicidal activity index (Panicum Spp; 1.12 kg/h) | post-emergence herbicidal activity index (Hemp Sesbania; 0.28 kg/h) | post-emergence herbicidal activity index (Hemp Sesbania; 1.12 kg/h) | post-emergence herbicidal activity index (Wild Buckwheat; 0.28 kg/h) | post-emergence herbicidal activity index (Wild Buckwheat; 1.12 kg/h) | post-emergence herbicidal activity index (Crabgrass; 0.28 kg/h)
1 (25-49% control): pre-emergent herbicidal activity index (Canada Thistle) | post-emergence herbicidal activity index (Cocklebur [5]; Table II, 1.12 kg/h) | post-emergence herbicidal activity index (Quackgrass [6]; 11.2 kg/h) | post-emergence herbicidal activity index (Hemp Sesbania; 5.6 kg/h) | post-emergence herbicidal activity index (Yellow Nutsedge [8]; 5.6 kg/h)
2 (50-74% control): pre-emergent herbicidal activity index (Johnsongrass [3]) | post-emergence herbicidal activity index (Crabgrass; 1.12 kg/h) | post-emergence herbicidal activity index (Yellow Nutsedge [8]; 11.2 kg/h)
3 (75-99% control): post-emergence herbicidal activity index (Wheat; 5.6 kg/h) | post-emergence herbicidal activity index (Sugar Beet; 5.6 kg/h) | post-emergence herbicidal activity index (Cocklebur [5]; Table I, 11.2 kg/h) | post-emergence herbicidal activity index (Cocklebur [5]; Table II, 5.6 kg/h) | post-emergence herbicidal activity index (Panicum Spp; 5.6 kg/h) | post-emergence herbicidal activity index (Quackgrass [6]; 5.6 kg/h) | post-emergence herbicidal activity index (Johnsongrass [7]; 5.6 kg/h) | post-emergence herbicidal activity index (Johnsongrass [7]; 11.2 kg/h) | post-emergence herbicidal activity index (Wild Buckwheat; 5.6 kg/h)
0 (0-24% control): pre-emergent herbicidal activity index (Cocklebur [1]) | pre-emergent herbicidal activity index (Quackgrass [2]) | pre-emergent herbicidal activity index (Yellow Nutsedge [4]) | pre-emergent herbicidal activity index (Lambsquarters) | pre-emergent herbicidal activity index (Downy Brome) | pre-emergent herbicidal activity index (Morningglory) | pre-emergent herbicidal activity index (Smartweed) | pre-emergent herbicidal activity index (Barnyardgrass) | pre-emergent herbicidal activity index (Velvetleaf)

— patent publication US4401604A, “Process for preparing thiosulfenamide derivatives of N-phosphonomethylglycine triesters” (Monsanto Company, priority 1981, dated 1983)
